Results: patent US11225480B2, “Malic enzyme inhibitors” (SUN PHARMA ADVANCED RESEARCH COMPANY LTD, priority 2019, dated 2022)
Counter-ions that a name gives are not always drawn.

Key:
Type in all cases: biochemical
human ME2 enzyme = human ME2 enzyme (Homo sapiens, UniProt P23368); assay: ME2 inhibition assay (diaphorase/resazurin coupled fluorescence); details: 10 μM compound concentration; read-out: Malic Enzyme 2 % inhibition (10 μM)
Summary of the method: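 Human ME2 (10 μL of 60 nM) was preincubated 5 min at room temperature with compound (10 μM) in 50 mM Tris-HCl pH 7.5, 10 mM MnCl2, 7 mM L-malate, 50 μM resazurin and 0.025 mg/ml diaphorase. The reaction was started with 10 μL of 2 mM β-NAD+ and run 2 hours at room temperature. Resorufin fluorescence (ex 540/em 600 nm) was normalized to enzyme-only (100%) and no-enzyme (0%) controls as % activity.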

human ME3 enzyme = target: T1, human ME3 enzyme (Homo sapiens, UniProt Q16798); assay: ME3 inhibition assay (diaphorase/resazurin coupled fluorescence); details: 10 μM compound concentration; read-out: Malic Enzyme 3 % inhibition (10 μM)
T1 sequence (Q16798 1-604): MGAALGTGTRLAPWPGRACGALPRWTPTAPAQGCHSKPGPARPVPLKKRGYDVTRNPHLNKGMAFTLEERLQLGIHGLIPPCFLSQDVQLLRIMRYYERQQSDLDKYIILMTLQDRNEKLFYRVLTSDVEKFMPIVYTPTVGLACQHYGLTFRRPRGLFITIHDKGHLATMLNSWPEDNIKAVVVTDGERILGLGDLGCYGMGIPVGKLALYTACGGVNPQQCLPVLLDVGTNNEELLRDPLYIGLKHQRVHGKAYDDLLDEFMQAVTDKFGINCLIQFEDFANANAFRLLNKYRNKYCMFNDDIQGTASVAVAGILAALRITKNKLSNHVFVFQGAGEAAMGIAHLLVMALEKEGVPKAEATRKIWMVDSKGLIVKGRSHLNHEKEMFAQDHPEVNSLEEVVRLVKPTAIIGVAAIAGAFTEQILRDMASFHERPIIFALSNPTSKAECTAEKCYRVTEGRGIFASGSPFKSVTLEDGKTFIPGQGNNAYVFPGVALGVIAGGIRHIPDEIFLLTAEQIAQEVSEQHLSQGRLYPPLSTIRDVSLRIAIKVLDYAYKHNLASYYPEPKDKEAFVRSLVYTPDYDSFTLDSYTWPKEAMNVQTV
Summary of the method: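 Coupled read-out: NADPH made by human ME3 (20 nM stock) drives diaphorase conversion of resazurin (50 μM) to resorufin; buffer 50 mM Tris-HCl pH 7.5, 10 mM MnCl2, 3 mM L-malate.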

human ME1 enzyme = target: T2, human ME1 enzyme (Homo sapiens, UniProt P48163); assay: ME1 inhibition assay (diaphorase/resazurin coupled fluorescence); details: 10 μM compound concentration; read-out: Malic Enzyme 1 % inhibition (10 μM)
T2 sequence (P48163 1-572): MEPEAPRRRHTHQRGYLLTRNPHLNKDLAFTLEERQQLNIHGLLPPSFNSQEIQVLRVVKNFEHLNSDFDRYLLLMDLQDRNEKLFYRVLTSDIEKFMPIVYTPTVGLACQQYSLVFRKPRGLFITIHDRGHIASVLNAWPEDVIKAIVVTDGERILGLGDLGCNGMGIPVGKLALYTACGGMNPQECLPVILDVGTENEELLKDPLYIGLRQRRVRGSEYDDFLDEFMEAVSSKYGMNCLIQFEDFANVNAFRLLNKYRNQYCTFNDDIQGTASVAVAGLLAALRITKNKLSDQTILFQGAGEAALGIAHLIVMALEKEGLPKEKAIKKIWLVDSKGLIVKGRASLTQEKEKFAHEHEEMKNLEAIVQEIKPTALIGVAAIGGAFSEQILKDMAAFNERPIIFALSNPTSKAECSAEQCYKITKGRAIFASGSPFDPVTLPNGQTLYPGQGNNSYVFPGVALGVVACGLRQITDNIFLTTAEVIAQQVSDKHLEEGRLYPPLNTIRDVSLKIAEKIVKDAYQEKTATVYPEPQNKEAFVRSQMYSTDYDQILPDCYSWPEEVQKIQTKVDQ
Summary of the method: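 Compounds at 10 μM preincubated 15 min in 50 mM Tris-HCl pH 7.5, 10 mM MnCl2, 2 mM L-malate, 10 μM resazurin, 0.01 mg/ml diaphorase, then human ME1 added for 5 min; reaction started with NADP+ and run 2 h at room temperature. Resorufin fluorescence (ex 540/em 600 nm) normalized to enzyme-only (100%) and no-enzyme (0%) controls.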

human ME2 enzyme, sequence (P23368 19-584): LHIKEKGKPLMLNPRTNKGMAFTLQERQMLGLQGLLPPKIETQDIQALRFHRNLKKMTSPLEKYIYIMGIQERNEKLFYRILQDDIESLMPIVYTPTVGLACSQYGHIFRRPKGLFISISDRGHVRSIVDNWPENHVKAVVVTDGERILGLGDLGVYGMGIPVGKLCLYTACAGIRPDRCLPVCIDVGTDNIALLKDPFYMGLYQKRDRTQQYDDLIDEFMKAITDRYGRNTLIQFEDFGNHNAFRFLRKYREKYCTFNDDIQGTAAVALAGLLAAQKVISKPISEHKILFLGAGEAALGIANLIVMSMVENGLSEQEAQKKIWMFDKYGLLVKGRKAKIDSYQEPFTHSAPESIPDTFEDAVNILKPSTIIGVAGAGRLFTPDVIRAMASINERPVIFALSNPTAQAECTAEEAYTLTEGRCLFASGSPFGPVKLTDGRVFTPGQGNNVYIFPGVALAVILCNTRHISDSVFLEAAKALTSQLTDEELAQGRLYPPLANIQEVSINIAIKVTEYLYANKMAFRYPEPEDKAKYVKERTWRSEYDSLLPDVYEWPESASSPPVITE

| Compound | inhibition at 10 µM (human ME2 enzyme) [%] | inhibition at 10 µM (human ME3 enzyme) [%] | inhibition at 10 µM (human ME1 enzyme) [%] |
| --- | --- | --- | --- |
| CC(C)(Sc1ccccc1Br)C(=O)N1CCN(c2ccc(O)cn2)CC1 [I.162, 2-(2-Bromo-phenyl-sulfanyl)-1-[4-(5-hydroxy-pyridin-2-yl)-piperazin-1-yl]-2-methyl-propan-1-one] | > 90 | > 90 | > 90 |
| O=C(CSc1ccc(F)cc1)N1CCN(c2ccc(O)cn2)CC1 [I.163, 2-(4-Fluoro-phenyl-sulfanyl)-1-[4-(5-hydroxy-pyridin-2-yl)-piperazin-1-yl]-ethanone] | > 90 | > 90 | > 90 |
| O=C(COc1ccc(F)cc1)N1CCN(c2ccc(O)cn2)CC1 [I.164, 2-(4-Fluoro-phenoxy)-1-[4-(5-hydroxy-pyridin-2-yl)-piperazin-1-yl]-ethanone] | > 90 | > 90 | > 90 |
| Cn1cc(CC(=O)N2CCN(c3ccc(O)cn3)CC2)c2cc(F)ccc21 [I.165, 2-(5-Fluoro-1-methyl-indol-3-yl)-1-[4-(5-hydroxy-pyridin-2-yl)-piperazin-1-yl]-ethanone] | > 90 | > 90 | > 90 |
| Cc1[nH]c2ccc(F)cc2c1CC(=O)N1CCN(c2ccc(O)cn2)CC1 [I.166, 2-(5-Fluoro-2-methyl-1H-indol-3-yl)-1-[4-(5-hydroxy-pyridin-2-yl)-piperazin-1-yl]-ethanone] | > 90 | > 90 | > 90 |
| O=C(Cc1c[nH]c2c(F)cc(F)cc12)N1CCN(c2ccc(O)cn2)CC1 [I.167, 2-(5,7-Difluoro-1H-indol-3-yl)-1-[4-(5-hydroxy-pyridin-2-yl)-piperazin-1-yl]-ethanone] | > 90 | > 90 | > 90 |
| O=C(C(=O)N1CCN(c2ccc(O)cn2)CC1)c1c[nH]c2ccc(F)cc12 [I.168, 1-(5-Fluoro-1H-indol-3-yl)-2-[4-(5-hydroxy-pyridin-2-yl)-piperazin-1-yl]-ethane-1,2-dione] | > 90 | > 90 | > 90 |
| CC(C)(C(=O)N1CCN(c2ccc(O)cn2)CC1)c1c[nH]c2ccc(F)cc12 [I.169, 2-(5-Fluoro-1H-indol-3-yl)-1-[4-(5-hydroxy-pyridin-2-yl)-piperazin-1-yl]-2-methyl-propan-1-one] | > 90 | > 90 | > 90 |
| O=C(CCc1cc(F)c(F)c(F)c1)N1CCN(c2ccc(O)cn2)CC1 [I.170, 1-[4-(5-Hydroxy-pyridin-2-yl)-piperazin-1-yl]-3-(3,4,5-trifluoro-phenyl)-propan-1-one] | > 90 | > 90 | > 90 |
| O=C(Cc1cc(F)c(F)c(F)c1)N1CCN(c2ccc(O)cc2)CC1 [I.171, 1-[4-(4-Hydroxy-phenyl)-piperazin-1-yl]-2-(3,4,5-trifluoro-phenyl)-ethanone] | > 90 | > 90 | > 90 |
| C=CC(=O)NC(CC(=O)N1CCN(c2ccc(O)cn2)CC1)c1ccccc1 (stereo not drawn) [I.172, N-{3-[4-(5-Hydroxy-pyridin-2-yl)-piperazin-1-yl]-3-oxo-1-phenyl-propyl}-acrylamide] | > 90 | > 90 | 50 to 69 |
| CC(C)(CC(=O)N1CCN(c2ccc(O)cc2)CC1)c1ccccc1 [I.173, 1-[4-(4-Hydroxy-phenyl)-piperazin-1-yl]-3-methyl-3-phenyl-butan-1-one hydrochloride salt] | > 90 | > 90 | 70 to 89 |
| O=C(Cc1c[nH]c2cc(Cl)c(Cl)cc12)N1CCN(c2ccc(O)cn2)CC1 [I.174, 2-(5,6-Dichloro-1H-indol-3-yl)-1-[4-(5-hydroxy-pyridin-2-yl)-piperazin-1-yl]-ethanone] | > 90 | > 90 | > 90 |
| Cc1[nH]c2ccc(Cl)cc2c1CC(=O)N1CCN(c2ccc(O)cn2)CC1 [I.175, 2-(5-Chloro-2-methyl-1H-indol-3-yl)-1-[4-(5-hydroxy-pyridin-2-yl)-piperazin-1-yl]-ethanone] | > 90 | > 90 | > 90 |
| Cc1[nH]c2cc(Cl)c(Cl)cc2c1CC(=O)N1CCN(c2ccc(O)cn2)CC1 [I.176, 2-(5,6-Dichloro-2-methyl-1H-indol-3-yl)-1-[4-(5-hydroxy-pyridin-2-yl)-piperazin-1-yl]-ethanone] | > 90 | > 90 | > 90 |
